In ChEMBL document CHEMBL4118232, “Design, synthesis and biological evaluation of pyrimidine derivatives as novel CDK2 inhibitors that induce apoptosis and cell cycle arrest in breast cancer cells” (Bioorg Med Chem, 2018):
Active and inactive are the calls of the source. No cut-off for these calls is given here.

How the values were obtained:
[1] = molecular target: Cyclin-dependent kinase 2/cyclin E1 (Homo sapiens, UniProt P24941); experiment: Inhibition of recombinant human CDK2/cyclin E after 40 mins by ADP-Glo reagent based luminescence assay; assay type: protein-complex assay
[2] = molecular target: Cyclin-dependent kinase 4/cyclin D1 (Homo sapiens, UniProt P11802); experiment: Inhibition of recombinant human CDK4/cyclin D1 after 40 mins by ADP-Glo reagent based luminescence assay; assay type: protein-complex assay
Cyclin-dependent kinase 4/cyclin D1, sequence (P11802 whole entry): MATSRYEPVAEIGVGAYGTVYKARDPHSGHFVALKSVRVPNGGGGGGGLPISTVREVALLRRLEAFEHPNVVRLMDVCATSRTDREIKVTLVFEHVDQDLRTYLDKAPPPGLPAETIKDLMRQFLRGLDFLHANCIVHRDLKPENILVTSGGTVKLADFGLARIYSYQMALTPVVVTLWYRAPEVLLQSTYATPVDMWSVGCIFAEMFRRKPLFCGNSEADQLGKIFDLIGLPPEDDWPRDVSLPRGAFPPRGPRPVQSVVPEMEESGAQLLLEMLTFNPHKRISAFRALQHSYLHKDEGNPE
Cyclin-dependent kinase 4/cyclin D1, sequence (P24385 whole entry, further chain): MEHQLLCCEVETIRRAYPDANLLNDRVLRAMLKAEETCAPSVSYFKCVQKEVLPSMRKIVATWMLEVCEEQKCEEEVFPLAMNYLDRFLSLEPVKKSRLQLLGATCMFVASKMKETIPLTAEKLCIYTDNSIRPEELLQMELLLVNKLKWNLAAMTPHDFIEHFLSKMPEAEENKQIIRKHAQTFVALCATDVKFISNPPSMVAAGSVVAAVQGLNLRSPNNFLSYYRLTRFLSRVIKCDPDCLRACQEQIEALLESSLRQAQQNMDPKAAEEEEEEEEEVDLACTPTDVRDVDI

MDA-MB-468 [3] = experiment: Antiproliferative activity against human MDA-MB-468 cells after 72 hrs by MTT assay; assay type: functional, cell-based; conditions: MDA-MB-468, 72 h
MDA-MB-468 [4] = experiment: Induction of apoptosis in human MDA-MB-468 cells assessed as necrotic cells at 15 uM after 12 hrs by Annexin V-FITC/PI staining based flow cytometry (reference value: 0.34%); assay type: functional
[5] = molecular target: Cyclin-dependent kinase 2 (Homo sapiens) (UniProt P24941); experiment: Inhibition of CDK2 in human MDA-MB-468 cells assessed as decrease in caspase 3 expression level at 15 uM measured up to 36 hrs by Western blot analysis; assay type: cell-based
MDA-MB-468 [6] = experiment: Antiproliferative activity against human MDA-MB-468 cells after 48 hrs by MTT assay; assay type: functional, cell-based; conditions: MDA-MB-468, 48 h
MDA-MB-468 [7] = experiment: Induction of apoptosis in human MDA-MB-468 cells assessed as necrotic cells at 15 uM after 6 hrs by Annexin V-FITC/PI staining based flow cytometry (reference value: 0.34%); assay type: functional
MDA-MB-468 [8] = experiment: Antiproliferative activity against human MDA-MB-468 cells after 24 hrs by MTT assay; assay type: functional, cell-based; conditions: MDA-MB-468, 24 h
MDA-MB-468 [9] = experiment: Cell cycle arrest in human MDA-MB-468 cells assessed as accumulation at S phase at 15 uM after 24 hrs by propidium iodide staining based flow cytometry (reference value: 39.46%); assay type: functional
786-0 = experiment: Growth inhibition of human 786-O cells at 20 uM by MTT assay; assay type: functional, cell-based
MDA-MB-468 [10] = experiment: Effect on cyclin E level in human CDK2-siRNA MDA-MB-468 cells at 15 uM by Western blot analysis; assay type: functional, cell-based
[11] = molecular target: Cyclin-dependent kinase 2 (Homo sapiens) (UniProt P24941); experiment: Inhibition of CDK2 in human MDA-MB-468 cells assessed as increase in bax expression level at 15 uM measured up to 36 hrs by Western blot analysis; assay type: cell-based
[12] = molecular target: Cyclin-dependent kinase 2 (Homo sapiens) (UniProt P24941); experiment: Inhibition of CDK2 in human MDA-MB-468 cells assessed as decrease in cyclin E phosphorylation at Thr62 residues at 15 uM after 12 to 26 hrs by Western blot analysis; assay type: cell-based
[13] = molecular target: Cyclin-dependent kinase 2 (Homo sapiens) (UniProt P24941); experiment: Inhibition of CDK2 in human MDA-MB-468 cells assessed as decrease in CDK2 phosphorylation at […] residues at 15 uM after 12 to 26 hrs by Western blot analysis; assay type: cell-based
MDA-MB-468 [14] = experiment: Induction of apoptosis in human MDA-MB-468 cells assessed as viable cells at 15 uM after 12 hrs by Annexin V-FITC/PI staining based flow cytometry (reference value: 91.43%); assay type: functional; conditions: MDA-MB-468, 12 h, read-out: Activity
MDA-MB-468 [15] = experiment: Induction of apoptosis in human MDA-MB-468 cells assessed as necrotic cells at 15 uM after 24 hrs by Annexin V-FITC/PI staining based flow cytometry (reference value: 0.34%); assay type: functional
CDK7/Cyclin H/MNAT1 = CDK7/Cyclin H/MNAT1 (Homo sapiens, UniProt P50613); experiment: Inhibition of recombinant human CDK7/cyclin H/MNAT1 after 40 mins by ADP-Glo reagent based luminescence assay; assay type: protein-complex assay
CDK7/Cyclin H/MNAT1, sequence (P51946 whole entry): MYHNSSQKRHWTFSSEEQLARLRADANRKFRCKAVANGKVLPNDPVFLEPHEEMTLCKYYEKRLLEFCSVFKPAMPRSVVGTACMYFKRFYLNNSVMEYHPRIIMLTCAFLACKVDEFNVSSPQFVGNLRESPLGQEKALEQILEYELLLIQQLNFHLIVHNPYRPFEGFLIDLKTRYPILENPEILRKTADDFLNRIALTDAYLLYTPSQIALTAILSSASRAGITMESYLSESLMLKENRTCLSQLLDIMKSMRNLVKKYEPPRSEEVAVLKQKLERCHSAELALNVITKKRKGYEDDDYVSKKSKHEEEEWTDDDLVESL
CDK7/Cyclin H/MNAT1, sequence (P50613 whole entry): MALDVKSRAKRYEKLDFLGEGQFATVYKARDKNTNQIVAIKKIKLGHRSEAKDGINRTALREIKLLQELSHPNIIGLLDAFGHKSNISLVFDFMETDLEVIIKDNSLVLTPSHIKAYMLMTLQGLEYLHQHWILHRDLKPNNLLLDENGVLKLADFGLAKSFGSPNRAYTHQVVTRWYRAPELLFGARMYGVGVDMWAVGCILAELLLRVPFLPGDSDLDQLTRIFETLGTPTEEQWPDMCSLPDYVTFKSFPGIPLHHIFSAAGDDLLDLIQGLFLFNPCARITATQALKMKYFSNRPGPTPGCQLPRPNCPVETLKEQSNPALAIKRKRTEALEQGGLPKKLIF
CDK7/Cyclin H/MNAT1, sequence (P51948 whole entry, further chain): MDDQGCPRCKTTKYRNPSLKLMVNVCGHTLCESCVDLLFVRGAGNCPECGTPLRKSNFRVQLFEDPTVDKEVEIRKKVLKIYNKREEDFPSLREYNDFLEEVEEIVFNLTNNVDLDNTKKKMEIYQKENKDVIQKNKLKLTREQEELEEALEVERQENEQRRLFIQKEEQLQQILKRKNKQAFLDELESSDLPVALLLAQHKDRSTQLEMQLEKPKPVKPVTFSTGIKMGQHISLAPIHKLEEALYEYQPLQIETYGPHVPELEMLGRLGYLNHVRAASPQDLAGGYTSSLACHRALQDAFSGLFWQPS

MDA-MB-468 [16] = experiment: Induction of apoptosis in human MDA-MB-468 cells assessed as viable cells at 15 uM after 6 hrs by Annexin V-FITC/PI staining based flow cytometry (reference value: 91.43%); assay type: functional; conditions: MDA-MB-468, 6 h, read-out: Activity
MDA-MB-468 [17] = experiment: Induction of apoptosis in human MDA-MB-468 cells assessed as late apoptotic cells at 15 uM after 12 hrs by Annexin V-FITC/PI staining based flow cytometry (reference value: 2.49%); assay type: functional
MCF7 = experiment: Growth inhibition of human MCF7 cells at 20 uM by MTT assay; assay type: functional, cell-based
MDA-MB-468 [18] = experiment: Growth inhibition of human MDA-MB-468 cells at 20 uM by MTT assay; assay type: functional, cell-based
MDA-MB-468 [19] = experiment: Cell cycle arrest in human MDA-MB-468 cells assessed as accumulation at G2 phase at 15 uM after 24 hrs by propidium iodide staining based flow cytometry (reference value: 14.16%); assay type: functional
MDA-MB-468 [20] = experiment: Induction of apoptosis in human MDA-MB-468 cells assessed as late apoptotic cells at 15 uM after 24 hrs by Annexin V-FITC/PI staining based flow cytometry (reference value: 2.49%); assay type: functional
[21] = molecular target: Cyclin-dependent kinase 2 (Homo sapiens) (UniProt P24941); experiment: Inhibition of CDK2 in human MDA-MB-468 cells assessed as increase in bim expression level at 15 uM measured up to 36 hrs by Western blot analysis; assay type: cell-based
MDA-MB-468 [22] = experiment: Induction of apoptosis in human MDA-MB-468 cells assessed as early apoptotic cells at 15 uM after 12 hrs by Annexin V-FITC/PI staining based flow cytometry (reference value: 5.74%); assay type: functional
WM 266-4 = experiment: Growth inhibition of human WM266.4 cells at 20 uM by MTT assay; assay type: functional, cell-based
MDA-MB-468 [23] = experiment: Induction of apoptosis in human MDA-MB-468 cells assessed as early apoptotic cells at 15 uM after 6 hrs by Annexin V-FITC/PI staining based flow cytometry (reference value: 5.74%); assay type: functional
MDA-MB-468 [24] = experiment: Effect on bim level in human CDK2-siRNA MDA-MB-468 cells at 15 uM by Western blot analysis; assay type: functional, cell-based
MDA-MB-468 [25] = experiment: Induction of apoptosis in human MDA-MB-468 cells assessed as early apoptotic cells at 15 uM after 24 hrs by Annexin V-FITC/PI staining based flow cytometry (reference value: 5.74%); assay type: functional
MDA-MB-468 [26] = experiment: Induction of morphological changes in human MDA-MB-468 cells at 15 uM after 6 to 24 hrs by Hoechst 33258 staining based fluorescence microscopy; assay type: functional, cell-based
CDK6/cyclin D3 = CDK6/cyclin D3 (Homo sapiens, UniProt Q00534); experiment: Inhibition of recombinant human CDK6/cyclin D3 after 40 mins by ADP-Glo reagent based luminescence assay; assay type: protein-complex assay
CDK6/cyclin D3, sequence (P30281 whole entry): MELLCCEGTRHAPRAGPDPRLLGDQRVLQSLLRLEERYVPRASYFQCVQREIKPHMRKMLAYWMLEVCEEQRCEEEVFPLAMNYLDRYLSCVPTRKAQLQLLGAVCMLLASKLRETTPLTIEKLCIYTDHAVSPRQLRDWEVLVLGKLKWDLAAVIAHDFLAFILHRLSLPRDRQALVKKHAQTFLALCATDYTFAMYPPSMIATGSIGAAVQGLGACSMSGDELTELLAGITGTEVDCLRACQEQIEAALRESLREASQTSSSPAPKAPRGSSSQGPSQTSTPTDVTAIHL
CDK6/cyclin D3, sequence (Q00534 whole entry): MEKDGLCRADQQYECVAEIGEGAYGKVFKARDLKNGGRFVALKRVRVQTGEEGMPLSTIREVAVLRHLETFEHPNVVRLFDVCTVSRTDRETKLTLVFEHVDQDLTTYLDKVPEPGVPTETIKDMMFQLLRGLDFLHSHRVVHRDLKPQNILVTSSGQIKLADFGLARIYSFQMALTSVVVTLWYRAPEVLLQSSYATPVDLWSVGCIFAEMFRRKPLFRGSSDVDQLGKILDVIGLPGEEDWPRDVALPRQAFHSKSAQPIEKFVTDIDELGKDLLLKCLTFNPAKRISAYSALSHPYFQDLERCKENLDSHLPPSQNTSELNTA

[27] = molecular target: Cyclin-dependent kinase 2 (Homo sapiens) (UniProt P24941); experiment: Inhibition of CDK2 in human MDA-MB-468 cells assessed as increase in cleaved PARP expression level at 15 uM measured up to 36 hrs by Western blot analysis; assay type: cell-based
[28] = molecular target: Cyclin-dependent kinase 2 (Homo sapiens) (UniProt P24941); experiment: Inhibition of CDK2 in human MDA-MB-468 cells assessed as increase in cleaved caspase 3 expression level at 15 uM measured up to 36 hrs by Western blot analysis; assay type: cell-based
HepG2 = experiment: Growth inhibition of human HepG2 cells at 20 uM by MTT assay; assay type: functional, cell-based
MDA-MB-468 [29] = experiment: Induction of apoptosis in human MDA-MB-468 cells assessed as late apoptotic cells at 15 uM after 6 hrs by Annexin V-FITC/PI staining based flow cytometry (reference value: 2.49%); assay type: functional
MDA-MB-468 [30] = experiment: Cell cycle arrest in human MDA-MB-468 cells assessed as accumulation at G1 phase at 15 uM after 24 hrs by propidium iodide staining based flow cytometry (reference value: 46.38%); assay type: functional
MDA-MB-231 = experiment: Growth inhibition of human MDA-MB-231 cells at 20 uM by MTT assay; assay type: functional, cell-based
MDA-MB-468 [31] = experiment: Induction of apoptosis in human MDA-MB-468 cells assessed as viable cells at 15 uM after 24 hrs by Annexin V-FITC/PI staining based flow cytometry (reference value: 91.43%); assay type: functional; conditions: MDA-MB-468, 24 h, read-out: Activity

SMILES: COc1ccc(Nc2ccnc(N3CCC(NC(=O)c4ccccc4F)CC3)n2)cc1
- IC50 [1]: 280 nM

SMILES: Cc1cc(Nc2ccc(F)cc2)nc(N2CCC(NC(=O)c3ccc(F)cc3)CC2)n1
- IC50 [1]: 153 nM

SMILES: COc1ccc(C(=O)NC2CCN(c3nc(C)cc(Nc4ccc(F)cc4)n3)CC2)cc1
- IC50 [1]: 54.2 nM

SMILES: COc1ccc(Nc2ccnc(N3CCC(NC(=O)c4cccc(C)c4)CC3)n2)cc1
- IC50 [1]: 474 nM

SMILES: Cc1ccc(C(=O)NC2CCN(c3nc(C)cc(Nc4ccc(F)cc4)n3)CC2)cc1
- IC50 [1]: 288 nM

SMILES: COc1ccc(Nc2ccnc(N3CCC(NC(=O)c4ccc(OC)cc4)CC3)n2)cc1
- IC50 [1]: 276 nM

SMILES: COc1ccc(Nc2ccnc(N3CCC(NC(=O)c4cccc(Cl)c4)CC3)n2)cc1
- IC50 [1]: 313 nM

SMILES: Cc1ccc(C(=O)NC2CCN(c3nccc(Nc4ccc(F)cc4)n3)CC2)cc1
- IC50 [1]: 276 nM

SMILES: COc1ccc(C(=O)NC2CCN(c3nccc(Nc4ccc(F)cc4)n3)CC2)cc1
- IC50 [2]: 278 nM
- IC50 (MDA-MB-468 [3]): 5740 nM
- Activity (MDA-MB-468 [4]): 2.73%
- inhibition [5]: Active
- IC50 (MDA-MB-468 [6]): 8960 nM
- Activity (MDA-MB-468 [7]): 0.87%
- IC50 (MDA-MB-468 [8]): 14300 nM
- Activity (MDA-MB-468 [9]): 25.25%
- growth inhibition (GI) (786-0): Active
- Activity (MDA-MB-468 [10]): inactive
- inhibition [11]: Active
- inhibition [12]: Active
- inhibition [13]: Active
- viability at 15 µM (MDA-MB-468 [14]): 76.6%
- Activity (MDA-MB-468 [15]): 3.46%
- IC50 (CDK7/Cyclin H/MNAT1): 89.8 nM
- viability at 15 µM (MDA-MB-468 [16]): 89.2%
- Activity (MDA-MB-468 [17]): 16.82%
- growth inhibition (GI) (MCF7): Active
- growth inhibition (GI) (MDA-MB-468 [18]): Active
- Activity (MDA-MB-468 [19]): 9.64%
- Activity (MDA-MB-468 [20]): 24.68%
- inhibition [21]: Active
- Activity (MDA-MB-468 [22]): 3.82%
- growth inhibition (GI) (WM 266-4): Active
- Activity (MDA-MB-468 [23]): 4.62%
- IC50 [1]: 45.8 to 54.3 nM
- Activity (MDA-MB-468 [24]): inactive
- Activity (MDA-MB-468 [25]): 6.02%
- Activity (MDA-MB-468 [26]): Active
- IC50 (CDK6/cyclin D3): 54.3 to 73.7 nM
- inhibition [27]: Active
- inhibition [28]: Active
- growth inhibition (GI) (HepG2): Active
- Activity (MDA-MB-468 [29]): 5.28%
- Activity (MDA-MB-468 [30]): 65.11%
- growth inhibition (GI) (MDA-MB-231): Active
- viability at 15 µM (MDA-MB-468 [31]): 65.8%

SMILES: O=C(NC1CCN(c2nccc(Nc3ccc(F)cc3)n2)CC1)c1ccccc1F
- IC50 [1]: 241 nM

SMILES: Cc1cc(Nc2ccc(F)cc2)nc(N2CCC(NC(=O)c3ccccc3F)CC2)n1
- IC50 [1]: 205 nM

SMILES: Cc1cc(Nc2ccc(F)cc2)nc(N2CCC(NC(=O)c3cccc(Cl)c3)CC2)n1
- IC50 [1]: 287 nM

SMILES: Cc1cccc(C(=O)NC2CCN(c3nccc(Nc4ccc(F)cc4)n3)CC2)c1
- IC50 [1]: 386 nM

SMILES: COc1ccc(C(=O)NC2CCN(c3nccc(Nc4ccccc4C)n3)CC2)cc1
- IC50 [1]: 286 nM

SMILES: Cc1ccc(C(=O)NC2CCN(c3nccc(Nc4ccccc4C)n3)CC2)cc1
- IC50 [1]: 567 nM

SMILES: COc1ccc(Nc2ccnc(N3CCC(NC(=O)c4ccc(C)cc4)CC3)n2)cc1
- IC50 [1]: 378 nM

SMILES: Cc1ccccc1Nc1ccnc(N2CCC(NC(=O)c3ccccc3F)CC2)n1
- IC50 [1]: 399 nM

SMILES: O=C(NC1CCN(c2nccc(Nc3ccc(F)cc3)n2)CC1)c1ccc(F)cc1
- IC50 [1]: 151 nM

SMILES: O=C(NC1CCN(c2nccc(Nc3ccc(F)cc3)n2)CC1)c1cccc(Cl)c1
- IC50 [1]: 206 nM

SMILES: Cc1cccc(C(=O)NC2CCN(c3nc(C)cc(Nc4ccc(F)cc4)n3)CC2)c1
- IC50 [1]: 380 nM

SMILES: Cc1ccccc1Nc1ccnc(N2CCC(NC(=O)c3ccc(F)cc3)CC2)n1
- IC50 [1]: 459 nM

SMILES: COc1ccc(Nc2ccnc(N3CCC(NC(=O)c4ccc(F)cc4)CC3)n2)cc1
- IC50 [1]: 405 nM

SMILES: Cc1ccccc1Nc1ccnc(N2CCC(NC(=O)c3cccc(Cl)c3)CC2)n1
- IC50 [1]: 501 nM

SMILES: Cc1cccc(C(=O)NC2CCN(c3nccc(Nc4ccccc4C)n3)CC2)c1
- IC50 [1]: 288 nM
